# Laboratory results: patent US10464963B2, “Compounds from invasive Salvinias and methods of using the same” (STEPHEN F. AUSTIN STATE UNIVERSITY, priority 2013, dated 2019)
# Read-outs that look alike come from different tables or passages of the source.
# Experiments:
# [1] = test system: human exocrine pancreatic cancer (BxPC-3); test: Cytotoxicity assay (WST-8), BxPC-3; format: cell-based
# [2] = test system: human non-small cell lung cancer (A549); test: Cytotoxicity assay (WST-8), A549; format: cell-based
# Description: (§1) PANC-1 and MRC-5 was cultured in complete growth medium according to the ATCC protocols. Cells were grown at 37° C. and 5% CO2 in humidified air.
# (§2) Cytotoxicity of total extracts of S. molesta was tested against PANC-1, A549, PC-3, and MRC-5. Cytotoxicity of the fractions was determined using A549 cells, a human non-small lung cancer cell line. Fractions were tested at 25, 50, and 100 μg/mL. The isolated pure compounds were tested in each of the cultured human tumor and normal cell lines at various concentrations between 1 and 100 μM with three replications. Human tumor and normal cells were inoculated into 96 well microtiter plates in 90 μL at plating densities ranging from 5,000 to 40,000 cells/well (measured by Z2 Coulter Counter of Beckman) depending on the doubling time of individual cell lines. Cell growth and viability was measured by WST-8 (Water Soluble Tetrazolium) assays following a standard protocol (Cell Counting Kit-8, Dojindo Molecular, Maryland). The WST-8 assay measured the relative activity of mitochondrial reductase enzymes in viable cells. A control WST reading (T0) before treatment was measured, then cells were continuously exposed to isolates for 48 h. After WST added and incubated for 2 h, the amount of formazan was measured by using a microplate spectrophotometer (μQuant spectrophotometer, Bio-Tek Instruments, Inc., Vermont) at 450 nm. TC or TD represents the readings of the untreated control or with tested compounds. Percent cell-growth (G) and percent cell-growth inhibition (GI) was calculated as: G=(TD−T0/TC−T0)×100; GI=[1−(TD−T0/TC−T0)]×100 for which TD≥T0; and G=(TD−T0/T0)×100; GI=[1−(TD−T0/T0)]×100 for which TD≤T0. […] Cancer drug doxorubicin was used as the positive controls in the cell-based assays.
# human leukemia (HL-60) = test: Cytotoxicity assay (WST-8), HL-60; format: cell-based
# [3] = test system: human prostate cancer (PC-3); test: Cytotoxicity assay (WST-8), PC-3; format: cell-based
# Description: as §1, §2
# [4] = Cytotoxicity assay (WST-8), MRC-5; format: cell-based, human; details: human
# Description: as §1, §2
# [5] = test system: human exocrine pancreatic cancer (PANC-1); test: Cytotoxicity assay (WST-8), PANC-1; format: cell-based
# Description: as §1, §2
# [6] = test system: normal human lung fibroblasts cells (MRC-5); test: Cytotoxicity assay (WST-8), MRC-5; format: cell-based
# Description: as §1, §2
# [7] = Homo sapiens, BXPC-3, Table 1, read-out: Activity against human exocrine pancreatic tumor BxPC-3 (GI50) (converted)
# [8] = Homo sapiens, BXPC-3, Table 7, WST-8, 48 h exposure, mean ± S.D., read-out: Cytotoxic activity (GI50) BxPC-3
# [9] = Homo sapiens, A549, Table 7, WST-8, 48 h exposure, mean ± S.D., read-out: Cytotoxic activity (GI50) A549
# [10] = Homo sapiens, HL-60, Table 7, WST-8, 48 h exposure, mean ± S.D., read-out: Cytotoxic activity (GI50) HL-60
# [11] = Homo sapiens, Table 7, WST-8, 48 h exposure, mean ± S.D., read-out: Cytotoxic activity (GI50) PC-3
# [12] = Homo sapiens, PANC-1, Table 1, read-out: Activity against human exocrine pancreatic tumor PANC-1 (GI50)
# [13] = Homo sapiens, PANC-1, Table 7, WST-8, 48 h exposure, mean ± S.D., read-out: Cytotoxic activity (GI50) PANC-1
# [14] = Table 7, WST-8, 48 h exposure, mean ± S.D., read-out: Cytotoxic activity (GI50) BxPC-3
# [15] = Table 7, WST-8, 48 h exposure, mean ± S.D., read-out: Cytotoxic activity (GI50) A549
# [16] = Table 7, WST-8, 48 h exposure, mean ± S.D., read-out: Cytotoxic activity (GI50) HL-60
# [17] = Table 7, WST-8, 48 h exposure, mean ± S.D., read-out: Cytotoxic activity (GI50) PC-3
# [18] = Table 7, WST-8, 48 h exposure, mean ± S.D., read-out: Cytotoxic activity (GI50) PANC-1
# [19] = Homo sapiens, BXPC-3, 48 h, read-out: Cytotoxic activity (GI50) BxPC-3
# [20] = Homo sapiens, A549, 48 h, read-out: Cytotoxic activity (GI50) A549
# [21] = Homo sapiens, A549, Table 1, read-out: Activity against human non-small cell lung tumor A549 (GI50) (converted)
# [22] = Homo sapiens, HL-60, 48 h, read-out: Cytotoxic activity (GI50) HL-60
# [23] = Homo sapiens, 48 h, read-out: Cytotoxic activity (GI50) PC-3
# [24] = Homo sapiens, PANC-1, 48 h, read-out: Cytotoxic activity (GI50) PANC-1
compound,measurement,setting,value
"CC(C)C1=C(O)C(=O)C2=C(CC[C@H]3C(C)(C)CCC[C@]23C)C1=O [Compound 20, royleanone]",GI50,[1]; [7],51 µM
same,GI50,[1]; [8],51 ± 10.4 µM
same,GI50,[2]; [9],30.1 ± 3.64 µM
same,GI50,human leukemia (HL-60); [10],36.3 ± 7.14 µM
same,GI50,[3]; [11],27.1 ± 11.8 µM
same,GI50 at 48 h,[4],45.7 ± 2.32 µM
same,GI50,[5]; [12],52.6 µM
same,GI50,[5]; [13],52.6 ± 18.8 µM
"CC(C)c1ccc2c3c(ccc2c1)C(C)(C)CCC3 [Compound 18, simonellite]",GI50,[1]; [14],> 100 µM
same,GI50,[2]; [15],> 100 µM
same,GI50,human leukemia (HL-60); [16],> 100 µM
same,GI50,[3]; [17],> 100 µM
same,GI50,[6],> 100 µM
same,GI50,[5]; [18],> 100 µM
"CC(C)c1cc2c(cc1O)[C@@]1(C)CCCC(C)(C)C1=CC2=O [Compound 9, 5,6-dehydrosugiol]",GI50,[1]; [19],> 100 µM
same,GI50,[2]; [20],84.5 ± 18.7 µM
same,GI50,[2]; [21],84.5 µM
same,GI50,human leukemia (HL-60); [22],92.8 ± 9.98 µM
same,GI50,[3]; [23],> 100 µM
same,GI50 at 48 h,[4],> 100 µM
same,GI50,[5]; [24],> 100 µM
"CC(C)C1=Cc2ccc3c(c2C(=O)C1=O)C(=O)CCC3(C)C [Compound 19, 1-oxomiltirone]",GI50,[1]; [14],20.5 ± 2 µM
same,GI50,[2]; [15],24.9 ± 5.94 µM
same,GI50,human leukemia (HL-60); [16],23.3 ± 6.66 µM
same,GI50,[3]; [17],19 ± 5.34 µM
same,GI50,[6],20.4 ± 3.36 µM
same,GI50,[5]; [18],32.1 ± 2.75 µM
"CC(C)C1=C(O)C(=O)C2=C(C=CC3C(C)(C)CCC[C@]23C)C1=O (stereo partly shown) [Compound 21, 6,7-dehydroroyleanone]",GI50,[1]; [19],41.7 ± 2.92 µM
same,GI50,"[1]; Homo sapiens, BXPC-3, read-out: Activity against human exocrine pancreatic tumor BxPC-3 (GI50)",41.7 µM
same,GI50,[2]; [20],48 ± 7.75 µM
same,GI50,"[2]; Homo sapiens, A549, read-out: Activity against human non-small cell lung tumor A549 (GI50)",48 µM
same,GI50,human leukemia (HL-60); [22],30 ± 8.3 µM
same,GI50,"human leukemia (HL-60); Homo sapiens, HL-60, read-out: Activity against human leukemia HL-60 (GI50)",30 µM
same,GI50,[3]; [23],46.3 ± 6.6 µM
same,GI50,"[3]; Homo sapiens, read-out: Activity against human prostate tumor PC-3 (GI50)",46.3 µM
same,GI50 at 48 h,"[4]; Table 7, normal lung cells, WST-8, 48 h exposure, mean ± S.D., read-out: Cytotoxic activity (GI50) MRC-5",40.2 ± 2.06 µM
same,GI50,[5]; [24],51.3 ± 10 µM
same,GI50,"[5]; Homo sapiens, PANC-1, read-out: Activity against human exocrine pancreatic tumor PANC-1 (GI50)",51.3 µM
"CC(C)c1cc2ccc3c(c2cc1O)CCCC3(C)C [Compound 17, 12-hydroxy simonellite]",GI50,[1]; [7],36.4 µM
same,GI50,[1]; [8],36.4 ± 8.08 µM
same,GI50,[2]; [21],42.2 µM
same,GI50,[2]; [9],42.2 ± 3.89 µM
same,GI50,"human leukemia (HL-60); Homo sapiens, HL-60, Table 1, read-out: Activity against human leukemia HL-60 (GI50) (converted)",50 µM
same,GI50,human leukemia (HL-60); [10],50 ± 15.2 µM
same,GI50,"[3]; Homo sapiens, Table 1, read-out: Activity against human prostate tumor PC-3 (GI50) (converted)",43.6 µM
same,GI50,[3]; [11],43.6 ± 11.9 µM
same,GI50,"[6]; human, 48 h",55.4 ± 4.94 µM
same,GI50,[5]; [12],37.5 µM
same,GI50,[5]; [13],37.5 ± 5.72 µM
"CC(C)c1cc2c(cc1O)[C@@]1(C)CCCC(C)(C)[C@@H]1CC2=O [Compound 13, sugiol]",GI50,[1]; [8],36.1 ± 1.5 µM
same,GI50,[2]; [9],79.8 ± 2.18 µM
same,GI50,human leukemia (HL-60); [10],68.6 ± 13.5 µM
same,GI50,[3]; [11],> 100 µM
same,GI50,"[6]; human, 48 h",> 100 µM
same,GI50,[5]; [13],87.9 ± 11.2 µM
